≈ marks a conversion by molar mass, not a printed value. Calls of active or inactive are those of the source. The rule behind the calls is not given here.
How the values were obtained:
Proteus vulgaris = test: Antimicrobial activity against Proteus vulgaris by broth dilution method; assay type: functional
[1] = Inhibition of beta-lactamase KPC-2
[2] = Inhibition of Beta-lactamase IMP1
AmpC = AmpC (Escherichia coli, UniProt Q83TT7); test: Inhibition of Escherichia coli ATCC 25922 AmpC
[3] = Inhibition of Escherichia coli Penicillin-binding protein 2
Pseudomonas aeruginosa [4] = test: Microbicidal activity against Pseudomonas aeruginosa BA selected after 8 times MIC compound exposure; assay type: functional
Acinetobacter junii [5] = test: Antimicrobial activity against Acinetobacter junii 15218 assessed as appearance of colony at 4 times MIC concentration; assay type: functional
Escherichia coli [6] = test: Antimicrobial activity against Escherichia coli W3110 assessed as appearance of short filaments at 4 ug/mL after 3 hrs by phase-contrast microscopy; assay type: functional, organism-based
Enterobacter cloacae [7] = test: Antimicrobial activity against Enterobacter cloacae S9369 assessed as appearance of colony at 4 times MIC concentration; assay type: functional, organism-based
Escherichia coli [8] = test: Antimicrobial activity against Escherichia coli W3110 assessed as appearance of colony at 4 times MIC concentration; assay type: functional, organism-based
Pseudomonas aeruginosa [9] = test: Microbicidal activity against Pseudomonas aeruginosa (560546)9 M.P. selected after 4 times MIC compound exposure; assay type: functional
Escherichia coli [10] = test: Antimicrobial activity against Escherichia coli K802N harboring beta-lactamase TEM-3 by broth dilution method; assay type: functional
Acinetobacter junii [11] = test: Antimicrobial activity against Acinetobacter junii 15218 assessed as highest concentration at which colonies reappeared; assay type: functional
Acinetobacter baumannii [12] = test: Antimicrobial activity against Acinetobacter baumannii HPA74510 harboring beta-lactamase IMP-4 by broth dilution method; assay type: functional
Beta-lactamase = Beta-lactamase (Citrobacter freundii, UniProt P05193); test: Inhibition of Citrobacter freundii AmpC
Chain of Beta-lactamase (P05193 whole entry): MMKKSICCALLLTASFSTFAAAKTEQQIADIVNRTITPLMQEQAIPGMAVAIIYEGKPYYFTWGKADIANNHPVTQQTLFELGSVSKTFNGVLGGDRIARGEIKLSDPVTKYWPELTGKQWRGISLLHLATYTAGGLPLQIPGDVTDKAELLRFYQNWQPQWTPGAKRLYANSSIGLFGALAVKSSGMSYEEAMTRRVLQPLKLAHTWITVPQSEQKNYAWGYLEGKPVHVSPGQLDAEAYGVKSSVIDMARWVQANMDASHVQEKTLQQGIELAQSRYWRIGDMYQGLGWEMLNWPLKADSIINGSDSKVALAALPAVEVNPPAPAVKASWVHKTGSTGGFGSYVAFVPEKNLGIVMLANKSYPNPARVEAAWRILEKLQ

Pseudomonas aeruginosa [13] = test: Antimicrobial activity against Pseudomonas aeruginosa BA by broth dilution method; assay type: functional
[14] = Inhibition of beta-lactamase SHV-4
Escherichia coli [15] = test: Antimicrobial activity against Escherichia coli nmcA harboring beta-lactamase NMCA by broth dilution method; assay type: functional
Providencia stuartii = test: Antimicrobial activity against Providencia stuartii by broth dilution method; assay type: functional
Pseudomonas aeruginosa [16] = test: microbe, parasite or virus in culture; conditions: PAO1
Description: Antimicrobial activity against Pseudomonas aeruginosa PAO1 by broth dilution method

[17] = test system: Stenotrophomonas maltophilia; test: Microbicidal activity against Stenotrophomonas maltophilia 1AC736 selected after MIC of compound exposure; assay type: functional
Enterobacter cloacae [18] = test: Microbicidal activity against Enterobacter cloacae S9369 selected after 8 times MIC compound exposure; assay type: functional
Enterobacter cloacae [19] = test: Antimicrobial activity against Enterobacter cloacae S4741B assessed as highest concentration at which colonies reappeared; assay type: functional
Escherichia coli [20] = test: Antimicrobial activity against Escherichia coli W3110 assessed as appearance of spheroplast at 4 ug/mL after 3 hrs by phase-contrast microscopy; assay type: functional, organism-based
Pseudomonas aeruginosa [21] = test: Antimicrobial activity against Pseudomonas aeruginosa 621 assessed as number of passages required for MIC to rise above 4 times original MIC; assay type: functional
Pseudomonas aeruginosa [22] = test: Antimicrobial activity against Pseudomonas aeruginosa HPA10586 harboring beta-lactamase VIM-1 by broth dilution method; assay type: functional
Enterobacteriaceae = test: Antimicrobial activity against Enterobacteriaceae by broth dilution method; assay type: functional
Pseudomonas aeruginosa [23] = test: Microbicidal activity against Pseudomonas aeruginosa 527 selected after 4 times MIC compound exposure; assay type: functional
Escherichia coli [24] = test: Antimicrobial activity against Escherichia coli HB101 harboring beta-lactamase TEM-5 by broth dilution method; assay type: functional
Klebsiella pneumoniae [25] = test: Antimicrobial activity against Klebsiella pneumoniae 1338665 assessed as number of passages required for MIC to rise above 4 times original MIC; assay type: functional
Enterobacter cloacae [26] = test: Antimicrobial activity against Enterobacter cloacae S9369 assessed as log reduction in colony count after 24 hrs; assay type: functional
[27] = test system: Stenotrophomonas maltophilia; test: Antimicrobial activity against Stenotrophomonas maltophilia 1AC736 assessed as log reduction in colony count within 6 hrs selected after 1 to 16 times MIC compound exposure; assay type: functional, organism-based
Acinetobacter baumannii [28] = test: Antimicrobial activity against Acinetobacter baumannii HPA74510 assessed as number of passages required for MIC to rise above 4 times original MIC; assay type: functional
Enterobacter cloacae [29] = test: Antimicrobial activity against Enterobacter cloacae by broth dilution method; assay type: functional
Enterobacter cloacae [30] = test: Antimicrobial activity against Enterobacter cloacae S4741B assessed as appearance of colony at 4 times MIC concentration; assay type: functional
Klebsiella pneumoniae [31] = test: Antimicrobial activity against Klebsiella pneumoniae CRE harboring beta-lactamase KPC-2 by broth dilution method; assay type: functional
Acinetobacter baumannii [32] = test: Antimicrobial activity against Acinetobacter baumannii HPA74510 assessed as log reduction in colony count after 24 hrs; assay type: functional
Pseudomonas aeruginosa [33] = test: Antimicrobial activity against Pseudomonas aeruginosa 860 assessed as highest concentration at which colonies reappeared; assay type: functional
Pseudomonas aeruginosa [34] = test: Antimicrobial activity against Pseudomonas aeruginosa 1024 assessed as log reduction in colony count within 6 hrs selected after 4 to 8 times MIC compound exposure; assay type: functional, organism-based
Providencia rettgeri = test: Antimicrobial activity against Providencia rettgeri by broth dilution method; assay type: functional
Escherichia coli [35] = test: Antimicrobial activity against Escherichia coli Libyien harboring beta-lactamase CMY-2 by broth dilution method; assay type: functional
[36] = Inhibition of Escherichia coli Penicillin-binding protein 1B
[37] = Inhibition of beta-lactamase SHV-2
Enterobacter cloacae [38] = test: Microbicidal activity against Enterobacter cloacae S4741B selected after 4 times MIC compound exposure; assay type: functional
Acinetobacter baumannii [39] = test: Antimicrobial activity against Acinetobacter baumannii HPA74510 assessed as highest concentration at which colonies reappeared; assay type: functional
Pseudomonas aeruginosa [40] = test: Antimicrobial activity against pfeA deficient Pseudomonas aeruginosa 134 by broth dilution method; assay type: functional
Escherichia coli [41] = test: Antimicrobial activity against Escherichia coli CF102 harboring beta-lactamase TEM-3 by broth dilution method; assay type: functional
Acinetobacter baumannii [42] = test: Antimicrobial activity against Acinetobacter baumannii HPA74510 by broth dilution method; assay type: functional
Pseudomonas aeruginosa [43] = test: Antimicrobial activity against Pseudomonas aeruginosa 527 assessed as appearance of colony at 4 times MIC concentration; assay type: functional
Enterobacter cloacae [44] = test: Antimicrobial activity against Enterobacter cloacae S9369 selected after MIC of compound exposure by broth dilution method; assay type: functional
Pseudomonas aeruginosa [45] = test: Antimicrobial activity against Pseudomonas aeruginosa 527 by broth dilution method; assay type: functional
Klebsiella pneumoniae [46] = test: Antimicrobial activity against Klebsiella pneumoniae 1338665 by broth dilution method; assay type: functional
Escherichia coli [47] = test: Antimicrobial activity against Escherichia coli W3110 by broth dilution method; assay type: functional
Pseudomonas aeruginosa [48] = test: Antimicrobial activity against Pseudomonas aeruginosa BA(C1-106) mutant assessed as doubling time; assay type: functional
Pseudomonas aeruginosa [49] = test: Microbicidal activity against Pseudomonas aeruginosa 527 selected after 8 times MIC compound exposure; assay type: functional
Acinetobacter junii [50] = test: Antimicrobial activity against Acinetobacter junii 15218 by broth dilution method; assay type: functional
[51] = test system: Stenotrophomonas maltophilia; test: Microbicidal activity against Stenotrophomonas maltophilia 1AC736 selected after 2 times MIC compound exposure; assay type: functional
Pseudomonas aeruginosa [52] = test: Antimicrobial activity against Pseudomonas aeruginosa 860 by broth dilution method; assay type: functional
[53] = Pseudomonas aeruginosa, BA, read-out: MIC

Chain of AmpC (Q83TT7 whole entry): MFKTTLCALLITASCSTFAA

## CC1(C)[C@H](NC(=O)/C(=N\OCc2cc(=O)c(O)cn2O)c2csc(N)n2)C(=O)N1OS(=O)(=O)O (stereo in doubt)
Proteus vulgaris
  MIC: ≤ 0.06 µg/mL
  MIC50: ≤ 0.06 µg/mL
  MIC90: 0.25 µg/mL (≈ 0.482 µM)
[1]
  IC50: > 2500 µM
[2]
  IC50: > 2500 µM
AmpC
  IC50: 0.5 µM
[3]
  IC50: 30 µM
Pseudomonas aeruginosa [4]
  MBC: 4 µg/mL (≈ 7.71 µM)
Acinetobacter junii [5]
  Activity: Active
Escherichia coli [6]
  Activity: Active
Enterobacter cloacae [7]
  Activity: Active
Escherichia coli [8]
  Activity: Active
Pseudomonas aeruginosa [9]
  MBC: 4 µg/mL (≈ 7.71 µM)
Escherichia coli [10]
  MIC: > 32 µg/mL
Acinetobacter junii [11]
  Activity: 1 mg/L
Acinetobacter baumannii [12]
  MIC: 0.25 µg/mL (≈ 0.482 µM)
Beta-lactamase
  IC50: 2.7 µM
Pseudomonas aeruginosa [13]; [53]
  MIC: 1 µg/mL (≈ 1.93 µM)
[14]
  IC50: 4.3 µM
Escherichia coli [15]
  MIC: 1 µg/mL (≈ 1.93 µM)
Providencia stuartii
  MIC: ≤ 0.06 µg/mL
  MIC50: ≤ 0.06 µg/mL
  MIC90: ≤ 0.06 µg/mL
Pseudomonas aeruginosa [16]
  MIC: 2 µg/mL (≈ 3.86 µM)
[17]
  MBC: 0.125 µg/mL
Enterobacter cloacae [18]
  MBC: 8 µg/mL (≈ 15.4 µM)
Enterobacter cloacae [19]
  Activity: 16 mg/L
Escherichia coli [20]
  Activity: Active
Pseudomonas aeruginosa [21]
  Activity: 5 passages
Pseudomonas aeruginosa [22]
  MIC: 2 µg/mL (≈ 3.86 µM)
Enterobacteriaceae
  MIC50: 2 µg/mL (≈ 3.86 µM)
Pseudomonas aeruginosa [23]
  MBC: 8 µg/mL (≈ 15.4 µM)
Escherichia coli [24]
  MIC: 32 µg/mL (≈ 61.7 µM)
Klebsiella pneumoniae [25]
  Activity: 9 passages
Enterobacter cloacae [26]
  FC: 3
[27]
  Activity: Active
Acinetobacter baumannii [28]
  Activity: 6 passages
Enterobacter cloacae [29]
  MIC50: 4 µg/mL (≈ 7.71 µM)
  MIC90: > 32 µg/mL
Enterobacter cloacae [30]
  Activity: 7 frequency
Klebsiella pneumoniae [31]
  MIC: ≤ 0.06 µg/mL
Acinetobacter baumannii [32]
  FC: 3
Pseudomonas aeruginosa [33]
  Activity: 32 mg/L
Pseudomonas aeruginosa [34]
  Activity: Active
Providencia rettgeri
  MIC: ≤ 0.06 µg/mL
  MIC50: ≤ 0.06 µg/mL
  MIC90: ≤ 0.06 µg/mL
Escherichia coli [35]
  MIC: 4 µg/mL (≈ 7.71 µM)
[36]
  IC50: 1.9 µM
[37]
  IC50: 3.4 µM
Enterobacter cloacae [38]
  MBC: 4 µg/mL (≈ 7.71 µM)
Acinetobacter baumannii [39]
  Activity: 4 mg/L
Pseudomonas aeruginosa [40]
  MIC: 1 µg/mL (≈ 1.93 µM)
Escherichia coli [41]
  MIC: 4 µg/mL (≈ 7.71 µM)

## C[C@@H](O)[C@H]1C(=O)N2C(C(=O)O)=C(S[C@@H]3CN[C@H](C(=O)N(C)C)C3)[C@H](C)[C@H]12 [MEROPENEM]
Proteus vulgaris
  MIC50: 0.125 µg/mL (≈ 0.326 µM)
  MIC90: 0.5 µg/mL (≈ 1.3 µM)
Acinetobacter junii [5]
  Activity: Active
Enterobacter cloacae [7]
  Activity: Active
Escherichia coli [8]
  Activity: Active
Acinetobacter baumannii [42]
  MIC: 1 µg/mL (≈ 2.61 µM)
Pseudomonas aeruginosa [43]
  Activity: inactive
Escherichia coli [10]
  MIC: 16 µg/mL (≈ 41.7 µM)
Acinetobacter baumannii [12]
  MIC: 32 µg/mL (≈ 83.4 µM)
Enterobacter cloacae [44]
  MBC: 2 µg/mL
Pseudomonas aeruginosa [45]
  MIC: 2 µg/mL (≈ 5.22 µM)
Klebsiella pneumoniae [46]
  MIC: 4 µg/mL (≈ 10.4 µM)
Pseudomonas aeruginosa [13]
  MIC: 1 µg/mL (≈ 2.61 µM)
Pseudomonas aeruginosa [13]; [53]
  MIC: 1 µg/mL (≈ 2.61 µM)
Escherichia coli [15]
  MIC: > 32 µg/mL
Providencia stuartii
  MIC50: 0.25 µg/mL (≈ 0.652 µM)
  MIC90: > 32 µg/mL
Pseudomonas aeruginosa [16]
  MIC: 1 µg/mL (≈ 2.61 µM)
Escherichia coli [47]
  MIC: 0.25 µg/mL (≈ 0.652 µM)
Pseudomonas aeruginosa [48]
  Time: 3.8 h
Pseudomonas aeruginosa [49]
  MBC: 32 µg/mL (≈ 83.4 µM)
Pseudomonas aeruginosa [21]
  Activity: 2 passages
Pseudomonas aeruginosa [22]
  MIC: > 32 µg/mL
Acinetobacter junii [50]
  MIC: 0.25 µg/mL (≈ 0.652 µM)
Escherichia coli [24]
  MIC: ≤ 0.06 µg/mL
Klebsiella pneumoniae [25]
  Activity: inactive
[51]
  MBC: 16 µg/mL (≈ 41.7 µM)
Pseudomonas aeruginosa [52]
  MIC: 4 µg/mL (≈ 10.4 µM)
Acinetobacter baumannii [28]
  Activity: inactive
Enterobacter cloacae [29]
  MIC: ≤ 0.06 µg/mL
  MIC50: ≤ 0.06 µg/mL
  MIC90: 0.25 µg/mL (≈ 0.652 µM)
Enterobacter cloacae [30]
  Activity: Active
Klebsiella pneumoniae [31]
  MIC: > 32 µg/mL
Providencia rettgeri
  MIC50: 0.25 µg/mL (≈ 0.652 µM)
  MIC90: > 32 µg/mL
Escherichia coli [35]
  MIC: 0.125 µg/mL (≈ 0.326 µM)
Enterobacter cloacae [38]
  MBC: 0.25 µg/mL (≈ 0.652 µM)
Pseudomonas aeruginosa [40]
  MIC: 1 µg/mL (≈ 2.61 µM)
Escherichia coli [41]
  MIC: ≤ 0.06 µg/mL
